Results: patent publication US20120264735A1 (priority 2009, published 2012)
pIC50: −log10 of the molar value.

molecular target: T1, c-Met kinase (recombinant c-Met) (Homo sapiens, UniProt P08581); assay: In vitro kinase assay I (homogeneous time-resolved fluorescence tyrosine kinase assay); format: biochemical
T1 construct: 0.27 nM recombinant c-Met
Outline: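 Biotinylated peptide (0.5 μM) phosphorylated by 0.2 nM recombinant c-Met with 50 μM MgATP, 60 min at room temperature, pH 7.4, 5% DMSO. EDTA stop; HTRF read with Eu-anti-phosphotyrosine antibody and streptavidin-APC. IC50 from 4-parameter logistic fit.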

T1 sequence (P08581 25-1390): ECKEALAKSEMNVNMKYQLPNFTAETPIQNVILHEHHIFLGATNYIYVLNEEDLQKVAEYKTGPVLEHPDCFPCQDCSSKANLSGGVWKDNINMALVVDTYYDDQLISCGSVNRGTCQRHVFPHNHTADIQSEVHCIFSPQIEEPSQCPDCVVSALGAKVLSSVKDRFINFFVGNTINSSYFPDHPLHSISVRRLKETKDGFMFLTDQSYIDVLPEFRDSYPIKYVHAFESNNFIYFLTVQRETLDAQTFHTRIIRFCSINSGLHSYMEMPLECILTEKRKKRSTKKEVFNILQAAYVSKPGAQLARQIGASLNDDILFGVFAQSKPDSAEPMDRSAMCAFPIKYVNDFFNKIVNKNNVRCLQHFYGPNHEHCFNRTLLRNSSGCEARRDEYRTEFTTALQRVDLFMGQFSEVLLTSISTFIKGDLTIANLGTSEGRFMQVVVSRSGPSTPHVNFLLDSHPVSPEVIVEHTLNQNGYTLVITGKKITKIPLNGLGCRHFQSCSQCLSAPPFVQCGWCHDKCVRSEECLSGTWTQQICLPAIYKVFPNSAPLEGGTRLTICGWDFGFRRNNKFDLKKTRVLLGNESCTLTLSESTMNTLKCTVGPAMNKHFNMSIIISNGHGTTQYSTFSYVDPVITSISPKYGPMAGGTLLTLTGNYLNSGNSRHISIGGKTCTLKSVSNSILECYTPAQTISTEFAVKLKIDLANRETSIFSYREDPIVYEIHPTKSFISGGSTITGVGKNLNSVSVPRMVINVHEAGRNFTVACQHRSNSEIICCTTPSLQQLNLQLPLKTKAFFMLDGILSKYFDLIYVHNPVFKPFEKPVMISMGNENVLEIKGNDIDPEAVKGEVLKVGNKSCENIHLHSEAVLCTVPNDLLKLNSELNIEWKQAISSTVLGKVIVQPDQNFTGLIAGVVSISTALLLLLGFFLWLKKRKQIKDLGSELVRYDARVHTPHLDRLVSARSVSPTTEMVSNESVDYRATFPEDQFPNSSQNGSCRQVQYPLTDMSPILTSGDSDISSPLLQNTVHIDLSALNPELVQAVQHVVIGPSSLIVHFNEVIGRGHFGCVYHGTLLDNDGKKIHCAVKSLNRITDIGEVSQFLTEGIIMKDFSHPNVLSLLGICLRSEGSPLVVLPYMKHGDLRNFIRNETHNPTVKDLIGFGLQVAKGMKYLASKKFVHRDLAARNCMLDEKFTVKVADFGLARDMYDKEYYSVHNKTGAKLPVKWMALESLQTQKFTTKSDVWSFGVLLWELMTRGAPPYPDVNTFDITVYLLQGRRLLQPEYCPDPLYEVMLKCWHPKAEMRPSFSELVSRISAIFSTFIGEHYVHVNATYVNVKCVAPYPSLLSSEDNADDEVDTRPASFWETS

pIC50, > 7.00:
CCn1cc(-n2ccc(=O)c(Cc3cccc(-c4ncc(OCc5cc(C)no5)cn4)c3)n2)cn1 [Example 313, 1-(1-ethyl-1H-pyrazol-4-yl)-3-(3-{5-[(3-methylisoxazol-5-yl)methoxy]primidin-2-yl}benzyl)pyridazin-4(1H)-one]
CCn1cc(-n2ccc(=O)c(Cc3cccc(-c4ncc(OCc5noc(C)n5)cn4)c3)n2)cn1 [Example 314, 1-(1-ethyl-1H-pyrazol-4-yl)-3-(3-{5-[(5-methyl-1,2,4-oxadiazol-3-yl)methoxy]pyrimidin-2-yl}benzyl)pyridazin-4(1H)-one]
CCn1cc(-n2ccc(=O)c(Cc3cccc(-c4ncc(OCCn5cccn5)cn4)c3)n2)cn1 [Example 315, 1-(1-ethyl-1H-pyrazol-4-yl)-3-(3-{5-[2-(1H-pyrazol-1-yl)ethoxy]pyrimidin-2-yl}benzyl)pyridazin-4(1H)-one]
CCn1cc(-n2ccc(=O)c(Cc3cccc(-c4ncc(OCC5(C)COC5)cn4)c3)n2)cn1 [Example 316, 1-(1-ethyl-1H-pyrazol-4-yl)-3-(3-{5-[(3-methyloxetan-3-yl)methoxy]pyrimidin-2-yl}benzyl)pyridazin-4(1H)-one]
COCCOc1cnc(-c2cccc(Cc3nn(-c4ccc(F)c(F)c4)ccc3=O)c2)nc1 [Example 317, 1-(3,4-difluorophenyl)-3-{3-[5-(2-methoxyethoxy)pyrimidin-2-yl]benzyl}pyridazin-4(1H)-one]
COCCOc1cnc(-c2cccc(Cc3nn(-c4cc(F)c(F)c(F)c4)ccc3=O)c2)nc1 [Example 318, 3-{3-[5-(2-methoxyethoxy)pyrimidin-2-yl]benzyl}-1-(3,4,5-trifluorophenyl)pyridazin-4(1H)-one]
COCCOc1cnc(-c2cccc(Cc3nn(-c4cccc(C#N)c4)ccc3=O)c2)nc1 [Example 319, 3-[3-{3-[5-(2-methoxyethoxy)pyrimidin-2-yl]benzyl}-4-oxopyridazin-1(4H)-yl]benzonitrile]
COCCCOc1cnc(-c2cccc(Cc3nn(-c4ccc(F)c(F)c4)ccc3=O)c2)nc1 [Example 320, 1-(3,4-difluorophenyl)-3-{3-[5-(3-methoxypropoxy)pyrimidin-2-yl]benzyl}pyridazin-4(1H)-one]
CCOCCOc1cnc(-c2cccc(Cc3nn(-c4ccc(F)c(F)c4)ccc3=O)c2)nc1 [Example 321, 1-(3,4-difluorophenyl)-3-{3-[5-(2-ethoxyethoxy)pyrimidin-2-yl]benzyl}pyridazin-4(1H)-one]
COCCCOc1cnc(-c2cccc(Cc3nn(-c4cccc(C#N)c4)ccc3=O)c2)nc1 [Example 322, 3-[3-{3-[5-(3-methoxypropoxy)pyrimidin-2-yl]benzyl}-4-oxopyridazin-1(4H)-yl]benzonitrile]
CCOCCOc1cnc(-c2cccc(Cc3nn(-c4cccc(C#N)c4)ccc3=O)c2)nc1 [Example 323, 3-[3-{3-[5-(2-ethoxyethoxy)pyrimidin-2-yl]benzyl}-4-oxopyridazin-1(4H)-yl]benzonitrile]
COCCCOc1cnc(-c2cccc(Cc3nn(-c4cc(F)c(F)c(F)c4)ccc3=O)c2)nc1 [Example 324, 3-{3-[5-(3-methoxypropoxy)pyrimidin-2-yl]benzyl}-1-(3,4,5-trifluorophenyl)pyridazin-4(1H)-one]
CCOCCOc1cnc(-c2cccc(Cc3nn(-c4cc(F)c(F)c(F)c4)ccc3=O)c2)nc1 [Example 325, 3-{3-[5-(2-ethoxyethoxy)pyrimidin-2-yl]benzyl}-1-(3,4,5-trifluorophenyl)pyridazin-4(1H)-one]
O=c1ccn(-c2ccc(F)c(F)c2)nc1Cc1cccc(-c2ncc(OC3COC3)cn2)c1 [Example 326, 1-(3,4-difluorophenyl)-3-{3-[5-(oxetan-3-yloxy)pyrimidin-2-yl]benzyl}pyridazin-4(1H)-one]
